Laboratory results: patent US8044213B2, “Thiazolyl-benzimidazoles” (Hoffmann-La Roche Inc., priority 2008, dated 2011)

Legend:
GST-Plk1 = biological target: T1, GST-Plk1 (Homo sapiens, UniProt P53350); assay: Biochemical Characterization Assay A (HTRF, phosphorylation of GST-p53); conditions: full-length GST-Plk1, GST-p53 substrate, HTRF signal
T1 construct: Full-length, active GST-Plk1 was purified from Sf9 insect cells; made in house; host or cells: Sf9 insect cells
Method: Full-length, active GST-Plk1 was purified from Sf9 insect cells, and full-length GST-p53 was purified in E. coli. Anti-phospho p53 antibody was purchased from Cell Signaling Technology. Europium-conjugated anti-rabbit antibody was purchased from PerkinElmer Life and Analytical Sciences. APC-conjugated anti-GST antibody was purchased from Prozyme.
To two microliters of compound (0.6 nM-4 mM) in DMSO or plain DMSO for control wells, 38 microliters of 20 mM HEPES pH 7, 50 mM NaCl, 10 mM MgCl2, 0.5 mM TCEP, 0.1 mM sodium orthovanadate, 0.1 mg/ml BSA, and 0.05% Triton X-100 (Kinase Assay Buffer) were added. Eight microliters of the compound solution were added to a 384-well black microtiter plate, followed by six microliters of GST-p53 (17 ug/ml) and ATP (333 uM) in Kinase Assay Buffer. Six microliters of GST-Plk1 (3 ug/ml) in Kinase Assay Buffer were then added and the solution incubated at 37° C. for 35 minutes. Six microliters of solution containing 43 mM EDTA to stop the reaction and a 1:600 dilution of anti-phospho-p53 antibody in 20 mM HEPES pH 7, 50 mM NaCl, and 0.5 mg/ml BSA (Antibody Binding Buffer) were added and the solution incubated at 37° C. for 30 minutes. Six microliters of solution containing 9 nM europium-conjugated anti-rabbit antibody and 120 nM APC-conjugated anti-GST antibody in Antibody Binding Buffer were then added and the mixture incubated at room temperature for 1.5 hours. The HTRF signal was read on the Envision reader (PerkinElmer Life and Analytical Sciences).
(§1) The IC50 values for each compound were generated using an Excel template. The % conversion readings of Total and Blank were used as 0% and 100% inhibition. The percent inhibition values of reactions in the presence of compounds were calculated, and plotted against compound concentrations. All data were fitted into a Dose Response One Site model (4 parameter logistic model) as the following: (A+4B−A)/(1+((x/C)^13)))), with A and B as the bottom and top of the curve (highest and lowest inhibition), respectively, and C as IC50 and D as Hill Coefficient of the compound.

PLK1 = biological target: T2, PLK1 (Homo sapiens, UniProt P53350); assay: Biochemical Characterization Assay B (peptide substrate, LABCHIP EZ Reader II); conditions: PLK1, peptide RRRAGALMDASFEEQ-CONH2, % conversion on LABCHIP EZ Reader II
T2 construct: Full-length, active GST-Plk1 was purified from Sf9 insect cells; GST (N); made in house; host or cells: Sf9 insect cells
Method: Compounds were serially diluted to 6400, 2133, 711, 237, 79, 26, 8.78, 2.93, 0.98 and 0.33 μM in 100% DMSO. Diluted compound was further diluted 20 fold with Kinase Assay Buffer (KAB). Peptide RRRAGALMDASFEEQ-CONH2 (MW 2090) was diluted to 1.2 μM with KAB and ATP was added to 400 μM. PLK1 stock, prepared as described above, was diluted to 3 μg protein/mL with KAB right before it was added to MATRIX 384-Well Polypropylene Black Plates to start the reaction. 20 μL of KAB diluted compounds (or 5% DMSO in KAB for Total and Blank), 20 μL of KAB diluted peptide with ATP and 40 μL of KAB diluted PLK1 solution (KAB without PLK 1 for Blanks) were transferred to each well of the polypropylene plates. The reaction mixtures were incubated at room temperature for 40 minutes. Reactions were stopped by addition of 10 uL Reaction Stopping Buffer (RSB) to each well. Plates were then read on LABCHIP EZ Reader II from Caliper Life Science.
as §1

T2 sequence (P53350 whole entry): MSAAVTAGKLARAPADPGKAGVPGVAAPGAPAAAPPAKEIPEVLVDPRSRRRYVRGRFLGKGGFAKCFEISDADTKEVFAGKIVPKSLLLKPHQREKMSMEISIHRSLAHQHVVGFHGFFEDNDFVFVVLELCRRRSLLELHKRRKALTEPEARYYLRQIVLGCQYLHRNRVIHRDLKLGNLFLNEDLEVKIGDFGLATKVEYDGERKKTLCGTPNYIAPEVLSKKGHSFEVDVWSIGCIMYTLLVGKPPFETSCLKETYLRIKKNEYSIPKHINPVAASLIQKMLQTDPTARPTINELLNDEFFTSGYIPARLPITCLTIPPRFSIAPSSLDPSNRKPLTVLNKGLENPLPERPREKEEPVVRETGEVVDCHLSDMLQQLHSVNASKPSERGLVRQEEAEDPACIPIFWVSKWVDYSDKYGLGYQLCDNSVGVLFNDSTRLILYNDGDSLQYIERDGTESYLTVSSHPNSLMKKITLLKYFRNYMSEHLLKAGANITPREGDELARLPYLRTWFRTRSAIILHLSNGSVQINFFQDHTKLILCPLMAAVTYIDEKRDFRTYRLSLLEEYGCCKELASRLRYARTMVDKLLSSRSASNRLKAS
T1 sequence (P53350 whole entry): as above

- IC50 (GST-Plk1): 19 nM
- IC50 (PLK1): 60 nM
Compound: COc1cc2ncn(-c3nc(-c4cccc(Cl)c4)c(C(N)=O)s3)c2cc1OCCCN1CCN(C)CC1 [Example 42, 4-(3-Chloro-phenyl)-2-{5-methoxy-6-[3-(4-methyl-piperazin-1-yl)-propoxy]-benzoimidazol-1-yl}-thiazole-5-carboxylic acid amide]
